Earlier results, collected in patent US20070191933A1, “Reduction of restenosis” (priority 2005, published 2007).

Test system: circulating T-cells
Details: FIG. 1

Substance: alemtuzumab [Campath]
- time to full recovery of T-cells (after a single dose): ≥ 3 months
- killing of circulating T-cells (single dose): kill all circulating T-cells
